Calls of active or inactive are those of the source. Unless noted, the calls are words filed in the database; no cut-off is given here.
Tests used:
[1] = biological target: Kappa-type opioid receptor (Mus musculus, UniProt P33534); assay: (§1) Ki value determined against Opioid receptor kappa 1 using [3H]U69, 593 at the Kd concentration 0.95 nM
[2] = biological target: Mu-type opioid receptor (Mus musculus) (UniProt P42866); assay: (§2) Ki value determined against Opioid receptor mu 1 using [3H]DAMGO at the Kd concentration 0.57 nM
Sequence of Mu-type opioid receptor (Mus musculus) (P42866 whole entry): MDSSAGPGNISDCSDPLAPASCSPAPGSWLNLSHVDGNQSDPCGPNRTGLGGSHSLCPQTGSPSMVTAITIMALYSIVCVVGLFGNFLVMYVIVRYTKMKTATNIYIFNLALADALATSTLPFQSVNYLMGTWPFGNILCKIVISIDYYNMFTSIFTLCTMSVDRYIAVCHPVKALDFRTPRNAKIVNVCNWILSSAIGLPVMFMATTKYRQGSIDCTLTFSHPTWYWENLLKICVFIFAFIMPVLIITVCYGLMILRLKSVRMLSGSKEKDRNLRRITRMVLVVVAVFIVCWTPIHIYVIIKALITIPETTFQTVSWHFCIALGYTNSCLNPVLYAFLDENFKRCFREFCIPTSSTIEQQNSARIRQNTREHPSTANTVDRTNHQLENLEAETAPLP

[3] = biological target: Sigma non-opioid intracellular receptor 1 (Rattus norvegicus, UniProt Q9R0C9); assay: Ki value determined against Sigma opioid receptor type 1 using [(+)-[3H]pentazocine at the Kd concentration 2 nM.
Sequence of Sigma non-opioid intracellular receptor 1 (Rattus norvegicus, UniProt Q9R0C9) (Q9R0C9 whole entry): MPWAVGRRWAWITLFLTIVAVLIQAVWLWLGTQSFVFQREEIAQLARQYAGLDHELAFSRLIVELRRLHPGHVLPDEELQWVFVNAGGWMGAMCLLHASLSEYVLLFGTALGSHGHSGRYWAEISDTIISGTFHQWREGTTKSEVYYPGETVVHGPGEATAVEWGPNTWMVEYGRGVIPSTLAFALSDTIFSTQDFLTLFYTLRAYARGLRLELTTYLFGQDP

[4] = biological target: T1, Opioid receptor (Mus musculus) (UniProt P42866+P32300+P33534); assay: Evaluated in vivo for the antinociceptive and opioid antagonist assays in ICR male mice, Tail-Flick agonist and antagonist tests was performed; format: functional, organism-based
T1 sequence (P32300 whole entry, looked up): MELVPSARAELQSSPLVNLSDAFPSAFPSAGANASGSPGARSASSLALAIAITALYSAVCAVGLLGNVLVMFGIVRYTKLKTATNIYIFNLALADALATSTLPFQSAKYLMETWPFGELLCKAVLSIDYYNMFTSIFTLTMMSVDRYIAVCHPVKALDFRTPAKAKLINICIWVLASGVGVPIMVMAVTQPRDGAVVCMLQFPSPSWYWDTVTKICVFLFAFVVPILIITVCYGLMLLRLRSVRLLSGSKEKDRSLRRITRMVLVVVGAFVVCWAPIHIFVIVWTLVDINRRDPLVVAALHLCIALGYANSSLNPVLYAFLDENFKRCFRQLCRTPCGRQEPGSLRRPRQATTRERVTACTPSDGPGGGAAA
T1 sequence (P33534 whole entry, looked up): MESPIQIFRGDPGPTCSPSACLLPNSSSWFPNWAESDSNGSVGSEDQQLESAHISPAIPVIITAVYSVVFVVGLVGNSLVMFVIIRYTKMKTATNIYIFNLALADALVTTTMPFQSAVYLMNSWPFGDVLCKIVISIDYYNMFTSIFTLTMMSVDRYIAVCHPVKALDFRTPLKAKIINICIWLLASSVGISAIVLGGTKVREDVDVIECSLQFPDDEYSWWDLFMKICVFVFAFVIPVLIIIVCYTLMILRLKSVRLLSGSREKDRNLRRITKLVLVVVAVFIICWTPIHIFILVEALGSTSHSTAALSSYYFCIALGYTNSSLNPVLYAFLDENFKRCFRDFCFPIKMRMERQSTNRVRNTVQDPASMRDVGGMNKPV
T1 sequence (P42866 whole entry, looked up): as the sequence (P42866 whole entry) above

[5] = biological target: Delta-type opioid receptor (Mus musculus, UniProt P32300); assay: Ki value determined against Opioid receptor delta 1 using [3H]DPDPE at the Kd concentration 2.1 nM
Sequence of Delta-type opioid receptor (P32300 whole entry): as the sequence (P32300 whole entry, looked up) above

Mu-type opioid receptor = Mu-type opioid receptor (Mus musculus, UniProt P42866); assay: as §2
Sequence of Mu-type opioid receptor (P42866 whole entry): as the sequence (P42866 whole entry) above

[6] = biological target: Sigma non-opioid intracellular receptor 1 (Mus musculus, UniProt O55242); assay: Ki value determined against Sigma opioid receptor type 1 using [(+)-[3H]pentazocine at the Kd concentration 2nM
Sequence of Sigma non-opioid intracellular receptor 1 (Mus musculus, UniProt O55242) (O55242 whole entry): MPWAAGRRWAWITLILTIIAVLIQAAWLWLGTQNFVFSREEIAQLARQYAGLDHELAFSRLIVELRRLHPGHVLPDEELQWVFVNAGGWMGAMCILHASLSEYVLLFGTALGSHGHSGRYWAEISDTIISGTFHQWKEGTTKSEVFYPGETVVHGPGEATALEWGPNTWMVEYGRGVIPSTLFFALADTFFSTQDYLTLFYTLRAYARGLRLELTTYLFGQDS

Sigma 2 receptor [7] = assay: Ki value determined against Sigma opioid receptor type 2 using [3H]DTG (5 nM) with 1 uM dextrallorphan to mask sigma-1 binding; set-up: species or system Mus musculus
[8] = biological target: T1, Opioid receptor (Mus musculus); assay: Using the PPQ (paraphenylquinone) assay selective opioid receptor agonist activity was established in mice; format: functional
[9] = biological target: T1, Opioid receptor (Mus musculus)
Description: Antinociceptive activity was determined in vivo in all opioid type tests, expressed as AD50 administered subcutaneously

[10] = biological target: T1, Opioid receptor (Mus musculus); assay: Evaluated in vivo for the antinociceptive and opioid antagonist assays in ICR male mice, Tail-Flick agonist and antagonist tests was performed; IA, Inactive less than 70% of mice affected at 30 mg/kg.; format: functional, organism-based; set-up: dose 30 mg/kg
[11] = biological target: T1, Opioid receptor (Mus musculus); assay: Hot plate test was carried out for mouse injected sc and the antinociceptive activity was determined from the response;IA, Inactive less than 70% of mice affected at 30 mg/kg.; format: functional, organism-based; set-up: dose 30 mg/kg
[12] = (§3) Tail-flick vs. morphine ED80(morphine sulfate substituted completely) was studied to determine selective in vivo agonist and antagonist activity.; format: functional
[13] = biological target: Kappa-type opioid receptor (Mus musculus) (UniProt P33534); assay: as §1
Sequence of Kappa-type opioid receptor (Mus musculus) (P33534 whole entry): as the sequence (P33534 whole entry, looked up) above

[14] = biological target: T1, Opioid receptor (Mus musculus); assay: as §3; format: functional, organism-based
[15] = biological target: T1, Opioid receptor (Mus musculus); assay: Using the PPQ (paraphenylquinone) assay selective opioid receptor agonist activity was established in mice;IA, Inactive less than 70% of mice affected at 30 mg/kg.; format: functional, organism-based; set-up: dose 30 mg/kg
[16] = biological target: T1, Opioid receptor (Mus musculus); assay: Hot plate test was carried out for mouse injected sc and the antinociceptive activity was determined from the response; format: functional, organism-based
[17] = biological target: Delta-type opioid receptor (Homo sapiens) (UniProt P41143); assay: Antinociceptive activity was determined at Opioid receptor delta 1 using DPDPE; format: functional
Sequence of Delta-type opioid receptor (Homo sapiens) (P41143 whole entry): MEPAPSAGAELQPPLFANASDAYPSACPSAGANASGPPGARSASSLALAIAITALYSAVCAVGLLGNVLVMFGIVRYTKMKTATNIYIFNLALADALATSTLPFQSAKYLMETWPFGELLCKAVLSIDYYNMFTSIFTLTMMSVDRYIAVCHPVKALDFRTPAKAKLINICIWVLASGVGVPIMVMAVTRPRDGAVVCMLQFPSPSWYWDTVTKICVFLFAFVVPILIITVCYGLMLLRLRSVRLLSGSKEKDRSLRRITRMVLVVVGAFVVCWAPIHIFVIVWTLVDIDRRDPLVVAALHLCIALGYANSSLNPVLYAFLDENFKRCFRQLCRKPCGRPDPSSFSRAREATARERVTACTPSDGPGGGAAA

[18] = biological target: Delta-type opioid receptor (Homo sapiens) (UniProt P41143); assay: Antinociceptive activity was determined at Opioid receptor delta 1 versus ED80 of U69,593; format: functional
[19] = biological target: Delta-type opioid receptor (Homo sapiens) (UniProt P41143); assay: Antinociceptive activity was determined at Opioid receptor delta 1 versus ED80 of morphine; format: functional
[20] = biological target: T1, Opioid receptor (Mus musculus); details: Tail
Description: (§5) Narcotic antagonist activity in the mouse tail-flick versus morphine assay

[21] = (§4) Tail-flick vs. morphine ED80(morphine sulfate substituted completely) was studied to determine selective in vivo agonist and antagonist activity.;IA, Inactive less than 70% of mice affected at 30 mg/kg.; format: functional, organism-based; set-up: dose 30 mg/kg
Mus musculus = assay: as §4; format: functional, organism-based; set-up: dose 30 mg/kg
Sigma 2 receptor [22] = assay: Ki value determined against Sigma opioid receptor type 2 using [3H]DTG(5nM) with 1 uM dextrallorphan to mask sigma1 binding; set-up: species or system Mus musculus
[23] = biological target: T1, Opioid receptor (Mus musculus); assay: Antinociceptive activity was determined in vivo in all opioid type tests; format: organism-based
[24] = biological target: T1, Opioid receptor (Mus musculus); details: Tail; remark: listed apart in the source
Description: as §5

Sequence of Kappa-type opioid receptor (P33534 whole entry): as the sequence (P33534 whole entry, looked up) above

Compound | Ki [1] [nM] | Ki [3] [nM] | Ki [5] [nM] | Ki (Mu-type opioid receptor) [nM] | Ki [6] [nM] | Ki (Sigma 2 receptor [7]) [nM] | ED50 [8] [mg/kg] | further results
C=CCCCN1CC[C@]2(C)c3cc(O)ccc3CC1C2C (stereo partly drawn) | 400 | 2.1 | – | – | – | – | – | inhibition [2]: 20.5%
C[C@H]1C2Cc3ccc(O)cc3[C@@]1(C)CCN2CCCCC#N | 6.9 | – | 160 | 18 | 490 | 2800 | 3 | ED50 [4]: 15 mg/kg
Oc1ccc2c3c1O[C@H]1c4[nH]c5ccccc5c4C[C@@]4(O)[C@@H](C2)N(CC2CC2)CC[C@]314 | – | – | – | – | – | – | – | AD50 [9]: 3.1 mg/kg
C=CCN1CC[C@]2(C)c3cc(O)ccc3CC1[C@@H]2C | 0.3 | – | 5.5 | 0.9 | 11000 | 3200 | 0.1 | ED50 [10]: inactive; ED50 [11]: inactive; ED50 [12]: 0.2 mg/kg
CC1C2Cc3ccc(O)cc3[C@@]1(C)CCN2CCCCCCC#N (stereo partly drawn) | – | 16 | – | – | – | – | – | inhibition [13]: 17.7%; inhibition [2]: 37%
C[C@H]1C2Cc3ccc(O)cc3[C@@]1(C)CCN2CCCCCC#N | 11 | – | 220 | 15 | 640 | 380 | – | ED50 [10]: inactive; ED50 [14]: 10 mg/kg; ED50 [11]: inactive; ED50 [15]: inactive
C=CCCN1CC[C@]2(C)c3cc(O)ccc3CC1[C@@H]2C | 1.3 | – | 21 | 2.1 | 1600 | 620 | 0.3 | ED50 [4]: 0.05 mg/kg; ED50 [14]: 4 mg/kg; ED50 [16]: 0.8 mg/kg
C=CCCCCN1CC[C@]2(C)c3cc(O)ccc3CC1C2C (stereo partly drawn) | – | 1.1 | – | 980 | – | – | – | –
C#CCCCN1CC[C@]2(C)c3cc(O)ccc3CC1[C@@H]2C | 11 | – | 140 | 18 | 200 | 440 | 12 | ED50 [10]: inactive; AD50 [17]: 0.05 mg/kg; AD50 [18]: 1.2 mg/kg; AD50 [19]: 20 mg/kg; ED50 [11]: inactive; ED50 [12]: 2 mg/kg
C=CCN1CC[C@]2(C)c3cc(O)ccc3CC1C2C (stereo partly drawn) | – | 300 | – | – | – | – | – | inhibition [13]: 31%; inhibition [2]: 28.5%; AD50 [20]: 13.2 mg/kg
C=CCCCCN1CC[C@]2(C)c3cc(O)ccc3CC1[C@@H]2C | 5.8 | – | 56 | 10 | 22 | 80 | 0.8 | ED50 [4]: 0.3 mg/kg; ED50 [16]: 0.6 mg/kg; ED50 [21]: inactive
C=CCCCN1CC[C@]2(C)c3cc(O)ccc3CC1[C@@H]2C | 5.9 | – | 60 | 15 | 50 | 180 | 1.4 | ED50 [10]: inactive; ED50 [11]: inactive; ED50 [12]: 6 mg/kg
C[C@H]1C2Cc3ccc(O)cc3[C@@]1(C)CCN2CC#N | 70 | – | 590 | 100 | 13000 | 19000 | 1.5 | ED50 [4]: 12 mg/kg; ED50 [16]: 9 mg/kg
CC1C2Cc3ccc(O)cc3[C@@]1(C)CCN2CCCCCC#N (stereo partly drawn) | 500 | 33 | – | – | – | – | – | inhibition [2]: 12.4%
CC1C2Cc3ccc(O)cc3[C@@]1(C)CCN2CCCCC#N (stereo partly drawn) | 1300 | 36 | – | 4800 | – | – | – | –
Oc1ccc2c3c1O[C@H]1c4[nH]c5c(c4C[C@@]4(O)[C@@H](C2)N(CC2CC2)CC[C@]314)C[C@@]1(O)[C@H]2Cc3ccc(O)c4c3[C@@]1(CCN2CC1CC1)[C@H]5O4 | – | – | – | – | – | – | – | AD50 [9]: 0.3 mg/kg

Compound | Ki [1] [nM] | Ki [3] [nM] | Ki [5] [nM] | Ki (Mu-type opioid receptor) [nM] | Ki [6] [nM] | Ki (Sigma 2 receptor [7]) [nM] | ED50 [8] [mg/kg] | further results
C[C@H]1C2Cc3ccc(O)cc3[C@@]1(C)CCN2CCCCCCC#N | 38 | – | 350 | 90 | 80 | 150 | 9 | ED50 [10]: inactive; ED50 [11]: inactive; ED50 (Mus musculus): inactive
CC#CCN1CC[C@]2(C)c3cc(O)ccc3CC1[C@@H]2C (stereo in doubt; 26) [listing 1 of 2 here] | – | – | – | – | 160 | – | – | Ki (Sigma 2 receptor [22]): 12000 nM
C#CCCCN1CC[C@]2(C)c3cc(O)ccc3CC1C2C (stereo partly drawn) | – | 18 | – | – | – | – | – | –
COC(=O)/C=C/C(=O)N[C@@H]1CC[C@@]2(O)[C@H]3Cc4ccc(O)c5c4[C@@]2(CCN3CC2CC2)[C@H]1O5 | – | – | – | – | – | – | – | AD50 [23]: 0.6 µg brain-1
CC#CCN1CC[C@]2(C)c3cc(O)ccc3CC1[C@@H]2C (stereo in doubt; 26) [listing 2 of 2 here] | – | – | – | – | – | – | – | AD50 [24]: 6.7 mg/kg
CC1C2Cc3ccc(O)cc3[C@@]1(C)CCN2CC#N (stereo partly drawn) | – | 11000 | – | – | – | – | – | inhibition [13]: 20.4%; inhibition [2]: 18.6%
CC1C2Cc3ccc(O)cc3[C@@]1(C)CCN2CCCC#N (stereo partly drawn) | 240 | 20 | – | – | – | – | – | inhibition [2]: 9%
C=CCCN1CC[C@]2(C)c3cc(O)ccc3CC1C2C (stereo partly drawn) | – | 15 | – | – | – | – | – | inhibition [13]: 35.5%; inhibition [2]: 41%
CC#CCN1CC[C@]2(C)c3cc(O)ccc3CC1[C@@H]2C (stereo in doubt; 12) [listing 1 of 2 here] | – | – | – | – | – | – | 0.1 | ED50 [10]: inactive; ED50 [11]: inactive
C[C@H]1C2Cc3ccc(O)cc3[C@@]1(C)CCN2CCC#N | 0.4 | – | 9.8 | 4.2 | 9800 | 51000 | 0.05 | ED50 [4]: 0.3 mg/kg; ED50 [16]: 0.1 mg/kg
CC#CCN1CC[C@]2(C)c3cc(O)ccc3CC1[C@@H]2C (stereo in doubt; 12) [listing 2 of 2 here] | 3.9 | – | 60 | 0.5 | 9800 | 4400 | – | ED50 [12]: 0.3 mg/kg
C#CCCN1CC[C@]2(C)c3cc(O)ccc3CC1C2C (stereo partly drawn) | – | 110 | – | – | – | – | – | –
C#CCCN1CC[C@]2(C)c3cc(O)ccc3CC1[C@@H]2C | 1.4 | – | 10 | 4.6 | 5900 | 2200 | 0.04 | ED50 [4]: 0.05 mg/kg; ED50 [16]: 0.1 mg/kg; ED50 [21]: inactive
CC1C2Cc3ccc(O)cc3[C@@]1(C)CCN2CCC#N (stereo partly drawn) | 600 | 250 | – | – | – | – | – | inhibition [2]: 11.6%
C[C@H]1C2Cc3ccc(O)cc3[C@@]1(C)CCN2CCCC#N | 0.4 | – | 23 | 5.8 | 1700 | 8400 | 0.01 | ED50 [4]: 0.4 mg/kg; ED50 [16]: 1 mg/kg
